Experimental data taken from patent US11324829B2, “Antiseptic agent comprising meglumine or salt thereof” (priority 2016, dated 2022).

System: E. coli, P. aeruginosa, S. aureus, C. albicans, A. brasiliensis
Test: Evaluation against category IA standard, Preservatives-Effectiveness Tests, Japanese Pharmacopoeia 16th edition (all 5 strains)
Assay type: cell-based
Settings: summary of Tables 1 to 3, against each of the strains
Description: The following strains were used as inoculum strains.
A test sample of each formulation was inoculated with an inoculum microorganism liquid so that the concentration of the microorganism liquid in the test sample was 10^5 to 10^6 cells/mL (for each of the 5 strains). Specifically, an inoculum microorganism liquid was prepared for each strain at 10^7 to 10^8 cfu/mL, and inoculated into a test sample of each of Examples 1 to 11 and Comparative Example 1, and uniformly mixed to obtain a sample, so that the inoculum microorganism liquid was at 10^5 to 10^6 cfu/mL. These samples were stored at 20 to 25° C. under a light shielding condition. At sampling points (after 14 days or 28 days), 1 mL of each sample was withdrawn with a micropipette to measure a viable cell count. […]
The test results in Tables 1 to 3 are each shown as the common logarithm value of the ratio (B/A) of a cell count (B) at the time of inoculation to a cell count (A) of viable cells. For example, the value “1” means that the measured viable cell count is as low as 10% of the inoculum cell count. Further, the formulations were evaluated whether they satisfied the standard of “category IA” according to the informative “Preservatives-Effectiveness Tests” defined in The Japanese Pharmacopoeia, 16th edition.

CNC[C@H](O)[C@@H](O)[C@H](O)[C@H](O)CO [meglumine, Meglumine]
Antiseptic effect (in words): alone has an antiseptic effect
